Assay results from patent US11279702B2, “AMPK activators” (Kallyope, Inc., priority 2020, dated 2022).
Blank lines part the entries; values can stand above or below the compound they belong to.

Columns and labels:
[1] = biological target: Recombinant AMPK α1/β1/γ1 complex (Homo sapiens (Human), UniProt Q13131+Q9Y478); assay: In vitro pAMPK1 kinase activation assay (ADP-Glo, SAMS peptide); format: biochemical; conditions: for EC50: AMPK α1/β1/γ1 pre-activated with CAMKK2, 12-point curve; for activation at 10 µM: relative to reference compound MK-8722
Sequence of Recombinant AMPK α1/β1/γ1 complex (Q13131 whole entry): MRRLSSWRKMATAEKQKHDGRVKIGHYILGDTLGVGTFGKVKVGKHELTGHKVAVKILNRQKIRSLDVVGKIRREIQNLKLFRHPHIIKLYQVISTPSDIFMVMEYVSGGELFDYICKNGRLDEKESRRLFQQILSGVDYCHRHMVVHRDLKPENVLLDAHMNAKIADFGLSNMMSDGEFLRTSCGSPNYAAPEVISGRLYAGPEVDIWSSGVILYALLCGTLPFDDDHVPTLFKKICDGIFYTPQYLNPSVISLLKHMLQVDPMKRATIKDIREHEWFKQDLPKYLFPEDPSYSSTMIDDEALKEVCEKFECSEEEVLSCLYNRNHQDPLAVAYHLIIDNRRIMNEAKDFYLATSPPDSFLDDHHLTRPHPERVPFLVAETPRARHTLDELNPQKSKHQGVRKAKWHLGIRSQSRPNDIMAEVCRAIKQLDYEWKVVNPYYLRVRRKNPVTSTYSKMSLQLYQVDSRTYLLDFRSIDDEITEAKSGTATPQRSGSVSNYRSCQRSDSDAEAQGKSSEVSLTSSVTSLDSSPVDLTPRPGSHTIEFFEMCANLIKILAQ
Sequence of Recombinant AMPK α1/β1/γ1 complex (Q9Y478 whole entry): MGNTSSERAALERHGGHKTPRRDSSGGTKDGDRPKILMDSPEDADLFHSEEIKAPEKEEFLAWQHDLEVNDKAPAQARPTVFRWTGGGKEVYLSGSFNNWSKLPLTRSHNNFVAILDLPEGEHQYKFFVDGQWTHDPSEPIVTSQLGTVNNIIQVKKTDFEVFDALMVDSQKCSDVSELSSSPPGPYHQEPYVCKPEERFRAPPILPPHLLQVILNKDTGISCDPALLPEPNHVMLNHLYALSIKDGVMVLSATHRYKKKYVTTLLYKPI
Sequence of Recombinant AMPK α1/β1/γ1 complex (P54619 whole entry partner): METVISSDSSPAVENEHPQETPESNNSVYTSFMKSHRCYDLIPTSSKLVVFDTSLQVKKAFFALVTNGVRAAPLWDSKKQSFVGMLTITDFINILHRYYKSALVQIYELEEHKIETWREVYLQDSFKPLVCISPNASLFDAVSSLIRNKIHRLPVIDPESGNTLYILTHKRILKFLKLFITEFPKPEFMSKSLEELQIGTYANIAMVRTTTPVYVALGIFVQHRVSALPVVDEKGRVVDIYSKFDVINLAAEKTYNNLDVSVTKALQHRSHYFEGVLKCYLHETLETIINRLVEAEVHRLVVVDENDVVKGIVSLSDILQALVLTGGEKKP
Description: Compound effect on AMPK enzyme activation was determined in a cell-free format with a 12-point concentration curve. The ADP-Glo detection system was used to determine phosphorylation of a SAMS peptide substrate. Recombinant AMPK α1/β1/γ1 complex was pre-activated by phosphorylation with CAMKK2 followed by incubated with compound for 15 minutes prior to the SAMS phosphorylation reaction. Activity curves and EC50 values were fitted by interpolation to an ATP:ADP standard curve as indicated by the ADP-Glo manufacturer using Prism software. Activity at 10 μM is reported relative to a reference compound, MK-8722 (Science 2017, 357(6350):507-511).

[2] = Pharmacokinetics (oral bioavailability, IV parameters); conditions: mouse, in vivo; C57BL/6 mice, IV 1 mg/kg, PO 30 mg/kg
Description: Compounds were tested for pharmacokinetics in C57BL/6 mice. Compounds 2, 4, and A1 were dosed IV at 1 mg/kg as a formulation of 0.5 mg/mL in 5% DMSO+30% PEG400+65% water and PO at 30 mg/kg as a formulation of 6 mg/mL in 0.25% MC+5% Tween 80+0.02% SDS. Compound 1 was dosed IV at 1 mg/kg as a formulation of 0.50 mg/mL in 5% DMSO+30% PEG400+65% water and PO at 30 mg/kg as a formulation of 6 mg/mL in 0.5% MC+0.5% Tween 80.

[3] = system: Mouse In Vivo Chemotherapy-Induced Intestinal Injury Model; assay: Diarrhea in chemotherapy (5FU)-induced intestinal injury model; parameters: species or system BALB/c mice; conditions: 30 mg/kg BID
Description: Compounds were formulated in vehicle (0.25% methyl cellulose, 5% Tween 80, 0.02% sodium dodecyl sulfate (SDS) in Hanks' Buffered Salt Solution with Ca2+ and Mg2+). On day 1, either saline or a 400 mg/kg dose of 5-fluorouracil (5FU) in saline was administered by intraperitoneal injection to BALB/c mice. Starting on day 2, vehicle or compound was administered once or twice a day by oral gavage. In some instances, compound was also administered once or twice a day by oral gavage from day −3 to day −1 (pre-5FU). From days 5 to 6 post-5FU, the animals were scored for diarrhea severity once a day. The diarrhea was scored 0-3 as follows: 0—normal consistency (black and solid), 1—soft (black and a bit lighter/yellow), 2—loosely shaped stool (yellowish and somewhat watery), 3—extreme diarrhea (very watery). Day 5 and day 6 diarrhea scores following administration of certain compounds were lower than vehicle control mice. […] In addition, Compound 1 was efficacious at doses as low as 3 mg/kg BID (6 mg/kg total daily dose).

BCRP = BCRP (Homo sapiens (Human), UniProt Q9UNQ0); assay: in vitro; format: in vitro ADME
Sequence of BCRP (Q9UNQ0 whole entry): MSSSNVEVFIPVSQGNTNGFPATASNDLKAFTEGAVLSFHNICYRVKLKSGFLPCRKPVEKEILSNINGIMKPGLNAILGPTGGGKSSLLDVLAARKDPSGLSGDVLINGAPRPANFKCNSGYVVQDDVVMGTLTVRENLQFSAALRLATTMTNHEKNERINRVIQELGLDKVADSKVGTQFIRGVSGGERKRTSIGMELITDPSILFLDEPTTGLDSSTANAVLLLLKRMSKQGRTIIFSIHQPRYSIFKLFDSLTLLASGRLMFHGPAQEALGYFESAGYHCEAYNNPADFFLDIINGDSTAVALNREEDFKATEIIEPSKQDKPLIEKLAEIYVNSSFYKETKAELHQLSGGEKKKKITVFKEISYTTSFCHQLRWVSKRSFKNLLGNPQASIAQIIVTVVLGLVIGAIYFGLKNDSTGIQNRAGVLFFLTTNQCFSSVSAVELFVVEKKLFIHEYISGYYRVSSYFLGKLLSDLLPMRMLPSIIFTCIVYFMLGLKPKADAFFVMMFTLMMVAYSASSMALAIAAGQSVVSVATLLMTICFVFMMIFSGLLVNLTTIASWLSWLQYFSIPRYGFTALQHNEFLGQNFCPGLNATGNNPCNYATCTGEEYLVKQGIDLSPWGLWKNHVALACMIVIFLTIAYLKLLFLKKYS
Description: Caco-2 cells purchased from ATCC were seeded onto […] (PET) in 96-well BD Insert plates at 1×10^5 cells/cm^2, and refreshed medium every 4-5 days until to the 21st to 28th day for confluent cell monolayer formation. The transport buffer in the study was HBSS with 10 mM HEPES at pH 7.40±0.05. Compounds were tested at 2 μM in the presence or absence of 30 μM novobiocin bi-directionally in duplicate. E3S was tested at 5 μM in the presence or absence of 30 μM novobiocin bi-directionally in duplicate, while nadolol and metoprolol were tested at 2 μM in the absence of novobiocin in A to B direction in duplicate. Final DMSO concentration was adjusted to less than 1%. The plate was incubated for 2 hours in CO2 incubator at 37+1° C., with 5% CO2 at saturated humidity without shaking. All samples were mixed with acetonitrile containing internal standard and were centrifuged at 4000 rpm for 10 min. Subsequently, 100 μL supernatant solution was diluted with 100 μL distilled water for LC/MS/MS analysis. Concentrations of test and control compounds in starting solution, donor solution, and receiver solution were quantified by LC/MS/MS, using peak area ratio of analyte/internal standard.

[4] = system: Acetyl CoA Carboxylase (ACC) Phosphorylation in Mouse Muscle; assay: Level of ACC phosphorylation in mouse muscle; format: in vivo, C57BL/6J mice
Description: Systemic AMPK target engagement in vivo can be assessed by measuring the site-specific phosphorylation of a direct AMPK substrate, acetyl-coenzyme A carboxylase (ACC), in a well perfused tissue such as muscle.
Compounds were formulated in vehicle (0.25% methyl cellulose, 5% Tween 80, 0.02% sodium dodecyl sulfate (SDS) in Hanks' Buffered Salt Solution with Ca^2+ and Mg^2+). Male C57BL/6J mice were administered vehicle or compound once daily for 5 days. On the final day of dosing (day 1 for acute assessment, day 5 for sub-chronic assessment), mice were euthanized by cervical dislocation five hours post dose and samples of skeletal muscle (gastrocnemius) were removed and snap frozen in liquid nitrogen.
Frozen muscle tissues were homogenized. Homogenates were analyzed for protein concentration and equal amounts of protein were assayed for total and phosphorylated ACC (p-ACC) levels using Meso Scale Discovery's Multi-array assay kit. The ratio of p-ACC/total ACC was determined for each sample.

EC50 [1]: 0.97 nM
activation at 10 µM [1]: 47%
bioavailability [2]: < 1%
Structure (SMILES): CP(=O)(O)CSc1nc2nc(-c3ccc(-c4ccccc4O)cc3)c(Cl)cc2[nH]1 [Compound 2, (((6-chloro-5-(2′-hydroxy-[1,1′-biphenyl]-4-yl)-1H-imidazo[4,5-b]pyridin-2-yl)thio)methyl)(methyl)phosphinic Acid]

Structure (SMILES): CCOP(=O)(O)CSc1nc2nc(-c3ccc(-c4ccccc4O)cc3)c(Cl)cc2[nH]1 [Compound 3, ethyl hydrogen (((6-chloro-5-(2′-hydroxy-[1,1′-biphenyl]-4-yl)-1H-imidazo[4,5-b]pyridin-2-yl)thio)methyl)phosphonate]
EC50 [1]: 2.38 nM
activation at 10 µM [1]: 49%

EC50 [1]: 0.55 nM
activation at 10 µM [1]: 28%
bioavailability [2]: < 1%
Structure (SMILES): O=P(O)(O)CSc1nc2nc(-c3ccc(-c4ccccc4O)cc3)c(Cl)cc2[nH]1 [Compound 4, (((6-chloro-5-(2′-hydroxy-[1,1′-biphenyl]-4-yl)-1H-imidazo[4,5-b]pyridin-2-yl)thio)methyl)phosphonic Acid]
Diarrhea Score % Change vs. Vehicle ([3]; Day 5): −58%
Diarrhea Score ([3]; Day 5, score 0-3): 0.37
Diarrhea Score % Change vs. Vehicle ([3]; Day 6): −65%
Diarrhea Score ([3]; Day 6, score 0-3): 0.63

EC50 [1]: 1120 nM
activation at 10 µM [1]: 18%
Structure (SMILES): CC(C)(C)CCc1ccc(-c2ccc(-c3nc4nc(SCC(=O)O)[nH]c4cc3Cl)cc2)c(O)c1 [Compound 6, 2-((6-chloro-5-(4′-(3,3-dimethylbutyl)-2′-hydroxy-[1,1′-biphenyl]-4-yl)-1H-imidazo[4,5-b]pyridin-2-yl)thio)acetic Acid]

EC50 [1]: 43 nM
activation at 10 µM [1]: 42%
Structure (SMILES): O=C(O)CSc1nc2nc(-c3ccc(N4CC[C@H](O)C4)cc3)c(Cl)cc2[nH]1 [Compound 7, (S)-2-((6-chloro-5-(4-(3-hydroxypyrrolidin-1-yl)phenyl)-1H-imidazo[4,5-b]pyridin-2-yl)thio)acetic Acid]

EC50 [1]: 20 nM
activation at 10 µM [1]: 39%
Structure (SMILES): O=C(O)CSc1nc2nc(-c3ccc(-c4ccc(-n5cncn5)cc4)cc3)c(Cl)cc2[nH]1 [Compound 8, 2-((5-(4′-(1H-1,2,4-triazol-1-yl)-[1,1′-biphenyl]-4-yl)-6-chloro-1H-imidazo[4,5-b]pyridin-2-yl)thio)acetic Acid]

EC50 [1]: 1.1 nM
activation at 10 µM [1]: 51%
Structure (SMILES): O=C(O)CSc1nc2nc(-c3ccc(-c4ccc(-n5cncn5)cc4O)cc3)c(Cl)cc2[nH]1 [Compound 9, 2-((6-chloro-5-(2′-hydroxy-4′-(1H-1,2,4-triazol-1-yl)-[1,1′-biphenyl]-4-yl)-1H-imidazo[4,5-b]pyridin-2-yl)thio)acetic Acid]

Efflux Ratio (BCRP; Caco-2): 36.79
Mean Recovery (%) A to B (BCRP; Caco-2): 76.60%
Mean Recovery (%) B to A (BCRP; Caco-2): 98.34%
Structure (SMILES): C[C@]12CC[C@@H]3c4ccc(OS(=O)(=O)O)cc4CC[C@H]3[C@@H]1CCC2=O [Compound E3S, reference compound]

% p-ACC/ACC ratio change vs. Vehicle, Sub-chronic (5 days) ([4]; 30 mg/kg once daily for 5 days, five hours post dose, gastrocnemius): 259.0%
% p-ACC/ACC ratio change vs. Vehicle, Acute (5 hr) ([4]; 30 mg/kg, day 1, five hours post dose, gastrocnemius): 275.7%
ratio of pACC/total ACC compared with vehicle control mice ([4]; 30 mg/kg, one-way ANOVA vs vehicle (Dunnett's post-test)): significantly higher
Structure (SMILES): O[C@@H]1CO[C@H]2[C@@H]1OC[C@H]2Oc1nc2cc(Cl)c(-c3ccc(-c4ccccc4)cc3)cc2[nH]1 [MK-8722, reference compound]

Papp A→B at 2 h, 2 μM (BCRP; human, Caco-2, pH 7.4, Mean Papp (10^−6 cm/s) A to B): 14.7 ×10⁻⁶ cm/s
recovery at 2 h, 2 μM (BCRP; human, Caco-2, pH 7.4, Mean Recovery (%) A to B): 95.4%
Structure (SMILES): COCCc1ccc(OCC(O)CNC(C)C)cc1 (stereo not drawn) [metoprolol, reference compound]

Mean Papp (10^−6 cm/s) A to B (BCRP; Caco-2): 0.11 10^−6 cm/s
Mean Recovery (%) A to B (BCRP; Caco-2): 99.73%
Structure (SMILES): CC(C)(C)NCC(O)COc1cccc2c1CC(O)C(O)C2 (stereo not drawn) [nadolol, reference compound]
